Bounds are passed on as bounds.

24 compounds from patent US20230129359A1, “MUSCARINIC RECEPTOR 4 ANTAGONISTS AND METHODS OF USE” (Neurocrine Biosciences, Inc., priority 2020, published 2023) can be followed below.

The assay concerns the target T1, human M4 receptor (Homo sapiens, UniProt P08173).
T1 construct: expressed in transfected cells; host or cells: CHO cells
T1 sequence (P08173 1-479): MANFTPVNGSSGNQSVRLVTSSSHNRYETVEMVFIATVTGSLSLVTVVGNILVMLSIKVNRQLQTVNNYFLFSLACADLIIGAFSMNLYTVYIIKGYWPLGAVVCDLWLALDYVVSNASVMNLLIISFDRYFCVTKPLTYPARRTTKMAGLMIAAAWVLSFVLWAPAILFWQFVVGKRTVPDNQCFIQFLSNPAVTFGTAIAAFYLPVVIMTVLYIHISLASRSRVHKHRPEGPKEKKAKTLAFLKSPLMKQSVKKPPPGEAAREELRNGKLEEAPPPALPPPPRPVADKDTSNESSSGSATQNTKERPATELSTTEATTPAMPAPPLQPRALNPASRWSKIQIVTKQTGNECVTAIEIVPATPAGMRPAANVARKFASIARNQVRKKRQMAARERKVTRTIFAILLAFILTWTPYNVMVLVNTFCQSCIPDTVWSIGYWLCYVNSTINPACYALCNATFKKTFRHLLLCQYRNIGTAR
Nature of the assay: Radioligand ([3H]N-methylscopolamine) binding assay, membranes from CHO cells expressing human M4 receptor. Particulars: Ki against human M4 receptor; membranes from CHO cells; tritiated N-methylscopolamine 1.5 nM; read-out: K. In a few lines: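 Competition binding used CHO-cell membranes expressing human M4 with 1.5 nM [3H]N-methylscopolamine and twelve compound concentrations ([…]). Incubation was 90 minutes at 37 °C in 50 mM HEPES, 100 mM NaCl, 5 mM MgCl2, 1 mM EDTA, pH 7.4. Bound ligand was collected by filtration onto PEI-treated glass fibre for Ki.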
On to `C[C@@H]1CN(c2ncc3ccccc3n2)C[C@H](C)N1C(=O)OC1CC2(C1)CN(Cc1ccccc1)C2` [Compound 377, 2-benzyl-2-azaspiro[3.3]heptan-6-yl (2R,6S)-2,6-dimethyl-4-(quinazolin-2-yl)piperazine-1-carboxylate], for which the Ki lay within 100 to 1000 nM.
In the case of `C[C@@H]1CN(c2cnc3cc(C(F)(F)F)ccc3n2)C[C@H](C)N1C(=O)OC1CC2(C1)CN(Cc1ccccc1)C2` [Compound 378, 2-benzyl-2-azaspiro[3.3]heptan-6-yl (2R,6S)-2,6-dimethyl-4-[6-(trifluoromethyl)quinoxalin-2-yl]piperazine-1-carboxylate], the Ki was less than 10 nM.
As for `COc1ccc2nc(N3C[C@@H](C)N(C(=O)OC4CC5(C4)CN(Cc4ccccc4)C5)[C@@H](C)C3)cnc2c1` [Compound 379, 2-benzyl-2-azaspiro[3.3]heptan-6-yl (2R,6S)-4-(6-methoxyquinoxalin-2-yl)-2,6-dimethylpiperazine-1-carboxylate], the Ki lay in the range of 10 to 100 nM.
Next, `C[C@@H]1CN(c2cnc3cc(C(F)(F)F)ccc3n2)[C@@H](C)CN1C(=O)OC1CC2(C1)CN(Cc1ccccc1)C2` [Compound 380, 2-benzyl-2-azaspiro[3.3]heptan-6-yl (2R,5S)-2,5-dimethyl-4-[6-(trifluoromethyl)quinoxalin-2-yl]piperazine-1-carboxylate]: less than 10 nM; `C[C@@H]1CN(c2nc3ccc(F)cc3s2)C[C@H](C)N1C(=O)OC1CC2(C1)CN(Cc1ccc(F)cc1)C2` [Compound 381, 2-[(4-fluorophenyl)methyl]-2-azaspiro[3.3]heptan-6-yl (2R,6S)-4-(6-fluoro-1,3-benzothiazol-2-yl)-2,6-dimethylpiperazine-1-carboxylate]: less than 10 nM.
Regarding `C[C@@H]1CN(c2nc3ccc(F)cc3s2)[C@@H](C)CN1C(=O)OC1CC2(C1)CN(Cc1ccc(F)cc1)C2` [Compound 383, 2-[(4-fluorophenyl)methyl]-2-azaspiro[3.3]heptan-6-yl (2R,5S)-4-(6-fluoro-1,3-benzothiazol-2-yl)-2,5-dimethylpiperazine-1-carboxylate], the Ki was less than 10 nM.
Next, `C[C@@H]1CN(c2nc3ccc(C(F)(F)F)cc3s2)C[C@H](C)N1C(=O)OC1CC2(C1)CN(Cc1ccc(F)cc1)C2` [Compound 384, 2-[(4-fluorophenyl)methyl]-2-azaspiro[3.3]heptan-6-yl (2R,6S)-2,6-dimethyl-4-[6-(trifluoromethyl)-1,3-benzothiazol-2-yl]piperazine-1-carboxylate]: less than 10 nM; `C[C@@H]1CN(c2nc3ccc(C(F)(F)F)cc3s2)C[C@@H](C)N1C(=O)OC1CC2(C1)CN(Cc1ccc(F)cc1)C2` [Compound 385, 2-[(4-fluorophenyl)methyl]-2-azaspiro[3.3]heptan-6-yl (2R,6R)-2,6-dimethyl-4-[6-(trifluoromethyl)-1,3-benzothiazol-2-yl]piperazine-1-carboxylate]: 10 to 100 nM.
Take `C[C@@H]1CN(c2nc3ccc(C(F)(F)F)cc3s2)[C@@H](C)CN1C(=O)OC1CC2(C1)CN(Cc1ccc(F)cc1)C2` [Compound 386, 2-[(4-fluorophenyl)methyl]-2-azaspiro[3.3]heptan-6-yl (2R,5S)-2,5-dimethyl-4-[6-(trifluoromethyl)-1,3-benzothiazol-2-yl]piperazine-1-carboxylate]: the Ki was less than 10 nM.
Consider `[2H]c1c([2H])c([2H])c(C([2H])([2H])N2CC3(CC(OC(=O)N4[C@H](C)CN(c5ncc(C(F)(F)F)cn5)C[C@@H]4C)C3)C2)c([2H])c1[2H]` [Compound 387, 2-[(^2H5)phenyl(^2H2)methyl]-2-azaspiro[3.3]heptan-6-yl (2R,6S)-2,6-dimethyl-4-[5-(trifluoromethyl)pyrimidin-2-yl]piperazine-1-carboxylate], for which the Ki was less than 10 nM.
`[2H]c1c([2H])c([2H])c(C([2H])([2H])N2CC3(CC(OC(=O)N4[C@H](C)CN(c5cnc(C(F)(F)F)cn5)C[C@@H]4C)C3)C2)c([2H])c1[2H]` [Compound 388, 2-[(^2H5)phenyl(^2H2)methyl]-2-azaspiro[3.3]heptan-6-yl (2R,6S)-2,6-dimethyl-4-[5-(trifluoromethyl)pyrazin-2-yl]piperazine-1-carboxylate]: the Ki lay in the range of 10 to 100 nM.
To `C[C@@H]1CN(c2cnc3ccccc3n2)C[C@H](C)N1C(=O)OC1CC2(C1)CN(Cc1ccc(F)cc1)C2` [Compound 391, 2-[(4-fluorophenyl)methyl]-2-azaspiro[3.3]heptan-6-yl (2R,6S)-2,6-dimethyl-4-(quinoxalin-2-yl)piperazine-1-carboxylate] belongs 10 to 100 nM; to `C[C@@H]1CN(c2ncc3ccccc3n2)C[C@H](C)N1C(=O)OC1CC2(C1)CN(Cc1ccc(F)cc1)C2` [Compound 392, 2-[(4-fluorophenyl)methyl]-2-azaspiro[3.3]heptan-6-yl (2R,6S)-2,6-dimethyl-4-(quinazolin-2-yl)piperazine-1-carboxylate], less than 10 nM.
On to `C[C@@H]1CN(c2cnc3ccccc3n2)[C@@H](C)CN1C(=O)OC1CC2(C1)CN(Cc1ccc(F)cc1)C2` [Compound 394, 2-[(4-fluorophenyl)methyl]-2-azaspiro[3.3]heptan-6-yl (2R,5S)-2,5-dimethyl-4-(quinoxalin-2-yl)piperazine-1-carboxylate], for which the Ki was 10 to 100 nM.
Next, `COc1ccc2nc(N3C[C@@H](C)N(C(=O)OC4CC5(C4)CN(Cc4ccc(F)cc4)C5)[C@@H](C)C3)cnc2c1` [Compound 395, 2-[(4-fluorophenyl)methyl]-2-azaspiro[3.3]heptan-6-yl (2R,6S)-4-(6-methoxyquinoxalin-2-yl)-2,6-dimethylpiperazine-1-carboxylate]: 10 to 100 nM.
Next, `COc1ccc2nc(N3C[C@@H](C)N(C(=O)OC4CC5(C4)CN(Cc4ccc(F)cc4)C5)C[C@@H]3C)cnc2c1` [Compound 396, 2-[(4-fluorophenyl)methyl]-2-azaspiro[3.3]heptan-6-yl (2R,5S)-4-(6-methoxyquinoxalin-2-yl)-2,5-dimethylpiperazine-1-carboxylate]: 10 to 100 nM; `C[C@@H]1CN(c2cnc3cc(F)ccc3n2)[C@@H](C)CN1C(=O)OC1CC2(C1)CN(Cc1ccc(F)cc1)C2` [Compound 397, 2-[(4-fluorophenyl)methyl]-2-azaspiro[3.3]heptan-6-yl (2R,5S)-4-(6-fluoroquinoxalin-2-yl)-2,5-dimethylpiperazin-1-carboxylate]: 10 to 100 nM; `C[C@@H]1CN(c2cnc(C(F)(F)F)cn2)C[C@@H](C)N1C(=O)OC1CC2(C1)CN(Cc1ccc(F)cc1)C2` [Compound 398, 2-[(4-fluorophenyl)methyl]-2-azaspiro[3.3]heptan-6-yl (2R,6R)-2,6-dimethyl-4-[5-(trifluoromethyl)pyrazin-2-yl]piperazine-1-carboxylate]: 10 to 100 nM.
Turning to `C[C@@H]1CN(c2cnc(C(F)(F)F)cn2)C[C@H](C)N1C(=O)OC1CC2(C1)CN(Cc1ccc(F)cc1)C2` [Compound 399, 2-[(4-fluorophenyl)methyl]-2-azaspiro[3.3]heptan-6-yl (2R,6S)-2,6-dimethyl-4-[5-(trifluoromethyl)pyrazin-2-yl]piperazine-1-carboxylate], the Ki fell in the range of 10 to 100 nM.
`C[C@@H]1CN(c2cnc(C(F)(F)F)cn2)[C@@H](C)CN1C(=O)OC1CC2(C1)CN(Cc1ccc(F)cc1)C2` [Compound 400, 2-[(4-fluorophenyl)methyl]-2-azaspiro[3.3]heptan-6-yl (2R,5S)-2,5-dimethyl-4-[5-(trifluoromethyl)pyrazin-2-yl]piperazine-1-carboxylate]: the Ki is 10 to 100 nM.
To `C[C@@H]1CN(c2nc3ccc(F)cc3s2)C[C@@H](C)N1C(=O)OC1CC2(C1)CN(Cc1ccc(C(N)=O)cc1)C2` [Compound 402, 2-[(4-carbamoylphenyl)methyl]-2-azaspiro[3.3]heptan-6-yl (2R,6R)-4-(6-fluoro-1,3-benzothiazol-2-yl)-2,6-dimethylpiperazine-1-carboxylate] belongs 10 to 100 nM; to `C[C@@H]1CN(c2nc3ccc(C(F)(F)F)cc3s2)C[C@H](C)N1C(=O)OC1CC2(C1)CN(Cc1ccncc1)C2` [Compound 416, 2-(pyridin-4-ylmethyl)-2-azaspiro[3.3]heptan-6-yl (2R,6)S-2,6-dimethyl-4-[6-(trifluoromethyl)-1,3-benzothiazol-2-yl]piperazine-1-carboxylate], less than 10 nM.
To `C[C@@H]1CN(c2ncc3ccccc3n2)C[C@H](C)N1C(=O)OC1CC2(C1)CN(Cc1ccncc1)C2` [Compound 421, 2-(pyridin-4-ylmethyl)-2-azaspiro[3.3]heptan-6-yl (2R,6S)-2,6-dimethyl-4-(quinazolin-2-yl)piperazine-1-carboxylate] belongs 100 to 1000 nM; to `C[C@@H]1CN(c2nc3ccc(C(F)(F)F)cc3o2)C[C@H](C)N1C(=O)OC1CC2(C1)CN(Cc1ccccc1)C2` [Compound 428, 2-benzyl-2-azaspiro[3.3]heptan-6-yl (2R,6S)-2,6-dimethyl-4-[6-(trifluoromethyl)-1,3-benzoxazol-2-yl]piperazine-1-carboxylate], less than 10 nM.
